pIC50: −log10 of the molar value.

Sequence of hACSL5 (Q9ULC5 33-683): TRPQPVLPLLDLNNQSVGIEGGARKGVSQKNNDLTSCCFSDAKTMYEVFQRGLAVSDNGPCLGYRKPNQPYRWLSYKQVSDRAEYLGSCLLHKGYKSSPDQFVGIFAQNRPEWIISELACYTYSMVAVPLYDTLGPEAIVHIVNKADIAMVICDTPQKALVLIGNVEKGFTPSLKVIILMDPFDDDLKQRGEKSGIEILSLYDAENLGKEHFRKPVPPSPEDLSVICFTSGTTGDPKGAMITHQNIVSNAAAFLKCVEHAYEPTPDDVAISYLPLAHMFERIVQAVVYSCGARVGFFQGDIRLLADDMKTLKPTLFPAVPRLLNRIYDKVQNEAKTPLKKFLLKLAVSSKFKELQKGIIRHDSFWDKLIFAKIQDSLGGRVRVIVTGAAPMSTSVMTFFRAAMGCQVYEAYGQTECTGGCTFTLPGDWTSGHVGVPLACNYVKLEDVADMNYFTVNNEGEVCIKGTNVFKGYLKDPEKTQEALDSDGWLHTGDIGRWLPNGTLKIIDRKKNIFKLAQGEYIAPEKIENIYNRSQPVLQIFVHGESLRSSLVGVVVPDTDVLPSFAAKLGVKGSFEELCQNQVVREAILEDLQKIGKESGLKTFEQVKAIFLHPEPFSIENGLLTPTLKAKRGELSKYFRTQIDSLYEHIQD

The target in the assay is hACSL5 (Homo sapiens (Human), UniProt Q9ULC5). Description: Human ACSL5 coupled enzyme Amplex Red assay. In kind it is biochemical. Conditions: read-out: hACSL5 IC50. As to the method:
Human ACSL5 (33-683) was cloned with a C-terminal 6 His tag and expressed in insect cells (sf9) as per standard insect cell expression protocols. Human ACSL5 was enriched by affinity nickel affinity chromatography followed by Superdex S200 gel filtration column equilibrated in 20 mM HEPES pH 7.8, 500 mM NaCl, 1 mM TCEP, 5% glycerol, 0.1% Triton X^100.
Inhibition of ACSL5 enzyme activity was monitored with a coupled enzyme Amplex Red assay.
The assay is carried out in 384-well microtiterplates. In a total volume of […], compounds are preincubated with 20 nM ACSL5, in a buffer containing 150 mM MOPS-NaOH, 12 mM MgCl2, 0.03% (v/v) Triton X-100, 2.79 U mL-1 Peroxidase and 24 U mL-1 Acyl-CoA Oxidase (pH 7.6). The reaction is started by the addition of substrate and co factors (25 μM oleate, 30 μM CoA, 1 mM ATP and 50 μM Amplex Red) and the fluorescence detected after 10 minutes at 25° C. with a fluorescence reader (BMG-Fluostar; BMG-Technologies) using an excitation wavelength of 535 nm and an emission wavelength of 590 nm.
Concentration-response titration points for each compound tested were filled to the Hill equation yielding concentrations of half maximal inhibition […] and maximal inhibition values.
On to `NCc1ccc(S(=O)(=O)NC(=O)c2ccc(OCC3CCCC3)c(C(F)(F)F)c2)cc1` [N-((4-(aminomethyl)phenyl)sulfonyl)-4-(cyclopentylmethoxy)-3-(trifluoromethyl)benzamide], for which the pIC50 is < 6.30.
On to `CC[C@@H](Oc1ccc(C(=O)NS(=O)(=O)c2ccc(O[C@H]3CCCN(C)C3)cc2)c(F)c1F)c1ccc(Oc2ccccn2)cn1` [2,3-difluoro-N-((4-(((S)-1-methylpiperidin-3-yl)oxy)phenyl)sulfonyl)-4-((R)-1-(5-(pyridin-2-yloxy)pyridin-2-yl)propoxy)benzamide], for which the negative-log IC50 (pIC50) was > 7.00.
The same measure for `CC[C@@H](Oc1ccc(C(=O)NS(=O)(=O)N2CC(OC3CCN(C)CC3)C2)c(F)c1F)c1ccc(Oc2ccccn2)cn1` [(R)-2,3-difluoro-N-((3-((1-methylpiperidin-4-yl)oxy)azetidin-1-yl)sulfonyl)-4-(1-(5-(pyridin-2-yloxy)pyridin-2-yl)propoxy)benzamide]: 6.30 to 7.00; for `CC(Oc1ccc(C(=O)NS(=O)(=O)c2ccc(CN)cc2)cc1C(F)(F)F)c1cccc(Oc2ccsc2)c1` (stereo not drawn) [N-((4-(aminomethyl)phenyl)sulfonyl)-4-(1-(3-(thiophen-3-yloxy)phenyl)ethoxy)-3-(trifluoromethyl)benzamide]: > 7.00; for `CC(Oc1ccc(C(=O)NS(=O)(=O)c2ccc(CN)cc2)c(F)c1F)c1cccc(OC2CCCC2)c1` (stereo not drawn) [N-((4-(aminomethyl)phenyl)sulfonyl)-4-(1-(3-(cyclopentyloxy)phenyl)ethoxy)-2,3-difluorobenzamide]: 6.30 to 7.00.
On to `CC[C@@H](Oc1ccc(C(=O)NS(=O)(=O)N2CC3CCC(C2)N3C)c(F)c1F)c1ccc(Oc2ccccn2)cn1` [2,3-difluoro-N-((8-methyl-3,8-diazabicyclo[3.2.1]octan-3-yl)sulfonyl)-4-((R)-1-(5-(pyridin-2-yloxy)pyridin-2-yl)propoxy)benzamide], for which the negative-log IC50 (pIC50) is > 7.00.
Regarding `NCCc1ccc(S(=O)(=O)NC(=O)c2ccc(OCc3cccc(Oc4ccccc4)c3)c(F)c2F)cc1` [N-((4-(2-aminoethyl)phenyl)sulfonyl)-2,3-difluoro-4-((3-phenoxybenzyl)oxy)benzamide], the negative-log IC50 (pIC50) was 6.30 to 7.00.
The result for `CC[C@@H](Oc1ccc(C(=O)NS(=O)(=O)N2CC3(CN(C)C3)C2)c(F)c1F)c1ccc(Oc2ccccn2)cn1` [(R)-2,3-difluoro-N-((6-methyl-2,6-diazaspiro[3.3]heptan-2-yl)sulfonyl)-4-(1-(5-(pyridin-2-yloxy)pyridin-2-yl)propoxy)benzamide] reads 6.30 to 7.00; that for `CC[C@@H](Oc1ccc(C(=O)NS(=O)(=O)c2ccc(OCCNC)cc2)c(F)c1F)c1ccc(OCC2CC2)cn1` [(R)-4-(1-(5-(cyclopropylmethoxy)pyridin-2-yl)propoxy)-2,3-difluoro-N-((4-(2-(methylamino)ethoxy)phenyl)sulfonyl)benzamide], > 7.00; that for `CC(Oc1ccc(C(=O)NS(=O)(=O)CCN)c(Cl)c1Cl)c1cccc(Oc2ccccc2)c1` (stereo not drawn) [N-((2-aminoethyl)sulfonyl)-2,3-dichloro-4-(1-(3-phenoxyphenyl)ethoxy)benzamide], 6.30 to 7.00.
As for `CC[C@@H](Oc1ccc(C(=O)NS(=O)(=O)N2CC3=C(CN(C)C3)C2)c(F)c1F)c1ccc(Oc2ccccn2)cn1` [(R)-2,3-difluoro-N-((5-methyl-3,4,5,6-tetrahydropyrrolo[3,4-c]pyrrol-2(1H)-yl)sulfonyl)-4-(1-(5-(pyridin-2-yloxy)pyridin-2-yl)propoxy)benzamide], the pIC50 is 6.30 to 7.00.
The result for `CC(Oc1ccc(C(=O)NS(=O)(=O)c2ccc(CN)cc2)cc1C(F)(F)F)c1cccc(Oc2cccnc2)c1` (stereo not drawn) [N-((4-(aminomethyl)phenyl)sulfonyl)-4-(1-(3-(pyridin-3-yloxy)phenyl)ethoxy)-3-(trifluoromethyl)benzamide] reads > 7.00; that for `CC(Oc1ccc(C(=O)NS(=O)(=O)c2ccc(CN)cc2)cc1C(F)(F)F)c1cccc(Oc2cnccn2)c1` (stereo not drawn) [N-((4-(aminomethyl)phenyl)sulfonyl)-4-(1-(3-(pyrazin-2-yloxy)phenyl)ethoxy)-3-(trifluoromethyl)benzamide], > 7.00.
The same measure for `CC[C@@H](Oc1ccc(C(=O)NS(=O)(=O)c2ccc(O[C@@H]3CCCN(C)C3)cc2)c(F)c1F)c1ccc(OCC2CC2)cn1` [4-((R)-1-(5-(cyclopropylmethoxy)pyridin-2-yl)propoxy)-2,3-difluoro-N-((4-(((R)-1-methylpiperidin-3-yl)oxy)phenyl)sulfonyl)benzamide]: 6.30 to 7.00.
Take `CC[C@@H](Oc1ccc(C(=O)NS(=O)(=O)N2CCC(OCCN(C)C)CC2)c(F)c1F)c1ccc(OCCOC)cn1` [(R)-N-((4-(2-(dimethylamino)ethoxy)piperidin-1-yl)sulfonyl)-2,3-difluoro-4-(1-(5-(2-methoxyethoxy)pyridin-2-yl)propoxy)benzamide]: the negative-log IC50 (pIC50) is < 6.30.
As to `CC[C@@H](Oc1ccc(C(=O)NS(=O)(=O)N2CCC(OC3CN(C)C3)CC2)c(F)c1F)c1ccc(Oc2ccccn2)cn1` [(R)-2,3-difluoro-N-((4-((1-methylazetidin-3-yl)oxy)piperidin-1-yl)sulfonyl)-4-(1-(5-(pyridin-2-yloxy)pyridin-2-yl)propoxy)benzamide], the pIC50 is > 7.00.
The result for `CC(Oc1ccc(C(=O)NS(=O)(=O)CCCN2CCOCC2)cc1C(F)(F)F)c1ccc(Oc2cccnn2)cn1` (stereo not drawn) [N-((3-morpholinopropyl)sulfonyl)-4-(1-(5-(pyridazin-3-yloxy)pyridin-2-yl)ethoxy)-3-(trifluoromethyl)benzamide] reads 6.30 to 7.00; that for `CC[C@@H](Oc1ccc(C(=O)NS(=O)(=O)N2CCN(C)CC2)c(F)c1F)c1cc(OC2CC(OC)C2)ccn1` (stereo partly drawn) [2,3-difluoro-4-((R)-1-(4-((1R,3R)-3-methoxycyclobutoxy)pyridin-2-yl)propoxy)-N-((4-methylpiperazin-1-yl)sulfonyl)benzamide], < 6.30; that for `CC[C@@H](Oc1ccc(C(=O)NS(=O)(=O)N2CCN(CCCF)CC2)c(F)c1F)c1ccc(OCC2CC2)cn1` [(R)-4-(1-(5-(cyclopropylmethoxy)pyridin-2-yl)propoxy)-2,3-difluoro-N-((4-(3-fluoropropyl)piperazin-1-yl)sulfonyl)benzamide], > 7.00.
The same measure for `CC[C@@H](Oc1ccc(C(=O)NS(=O)(=O)N2CCN(CCCF)CC2)c(F)c1F)c1ccc(Oc2ccccn2)cn1` [(R)-2,3-difluoro-N-((4-(3-fluoropropyl)piperazin-1-yl)sulfonyl)-4-(1-(5-(pyridin-2-yloxy)pyridin-2-yl)propoxy)benzamide]: > 7.00.
The same measure for `CC[C@@H](Oc1ccc(C(=O)NS(=O)(=O)N2CCC(OCCN3CCCC3)CC2)c(F)c1F)c1ccc(OCC2CC2)cn1` [(R)-4-(1-(5-(cyclopropylmethoxy)pyridin-2-yl)propoxy)-2,3-difluoro-N-((4-(2-(pyrrolidin-1-yl)ethoxy)piperidin-1-yl)sulfonyl)benzamide]: 6.30 to 7.00; for `CC(Oc1ccc(C(=O)NS(=O)(=O)c2ccc(CN)cc2)cc1C(F)(F)F)c1cccc(Oc2cncnc2)c1` (stereo not drawn) [N-((4-(aminomethyl)phenyl)sulfonyl)-4-(1-(3-(pyrimidin-5-yloxy)phenyl)ethoxy)-3-(trifluoromethyl)benzamide]: 6.30 to 7.00; for `CC(Oc1ccc(C(=O)NS(=O)(=O)CCN)c(Cl)c1Cl)c1cccc(Oc2ccccc2)c1` (racemic) [rac-(R)-N-((2-aminoethyl)sulfonyl)-2,3-dichloro-4-(1-(3-phenoxyphenyl)ethoxy)benzamide]: < 6.30.
With `CC(Oc1ccc(C(=O)NS(=O)(=O)N2CCN(C)CC2)c(Cl)c1Cl)c1cccc(Oc2ccccc2)c1` (racemic) [rac-(R)-2,3-dichloro-N-((4-methylpiperazin-1-yl)sulfonyl)-4-(1-(3-phenoxyphenyl)ethoxy)benzamide], the pIC50 was > 7.00.
The result for `NCc1ccc(S(=O)(=O)NC(=O)c2ccc(OCc3cccc(Oc4ccccc4)c3)c(Cl)c2Cl)cc1` [N-((4-(aminomethyl)phenyl)sulfonyl)-2,3-dichloro-4-((3-phenoxybenzyl)oxy)benzamide] reads > 7.00.
The result for `CC[C@@H](Oc1ccc(C(=O)NS(=O)(=O)c2ccc(O[C@@H]3CCCN(C)C3)cc2)c(F)c1F)c1ccc(Oc2ccccn2)cn1` [2,3-difluoro-N-((4-(((R)-1-methylpiperidin-3-yl)oxy)phenyl)sulfonyl)-4-((R)-1-(5-(pyridin-2-yloxy)pyridin-2-yl)propoxy)benzamide] reads > 7.00.
The result for `CCOc1ccc(C(CC)Oc2ccc(C(=O)NS(=O)(=O)c3ccc(OCCNC)cc3)cc2C(F)(F)F)nc1` (stereo not drawn) [4-(1-(5-ethoxypyridin-2-yl)propoxy)-N-((4-(2-(methylamino)ethoxy)phenyl)sulfonyl)-3-(trifluoromethyl)benzamide] reads > 7.00.

For the origin of these results see patent US20250275959A1, “COMPOUNDS AND METHODS OF THEIR USE” (LEXICON PHARMACEUTICALS, INC., priority 2024, published 2025).
